# Patent US20250213448A1, “COMPOSITION FOR PROTECTING SKIN CONTAINING A THYMOL ESTER-BASED COMPOUND” (Amorepacific Corporation, priority 2024, published 2025)
# System: Normal human epidermal melanocytes
# Experiment: Damage inhibition experiment using normal human melanocytes (UVB photoaging, real-time PCR gene expression)
# Type: cell-based
# Protocol: Melanocytes isolated from normal human skin (Normal human epidermal melanocytes) were treated with ultraviolet B (312 nm) at 20 mJ each, once a day, for two days, and cultured for one month. Melasolv was dissolved in DMSO at 1000×, irradiated with ultraviolet rays, and then immediately placed in a culture medium at 1 and 5 ppm and treated. The cells were grown in a 37° C., 5% CO2 incubator while changing the culture medium containing the experimental material every two days. After the experiment was completed, the cells were dissolved in TRIzol and collected, and total RNA was isolated. Then, cDNA was synthesized therefrom and real-time PCR was performed to compare the relative expression levels of each gene. The RNA was quantified and the same amount of RNA was added to each experimental group, and the expression of each gene was corrected by the expression of GAPDH, a house-keeping gene, to compare the relative expression levels.
# The gene primers used were purchased from APPLIED BIOSYSTEMS as follows: […]
smiles,measurement,setting,value
"COc1cc(/C=C/C(=O)Oc2cc(C)ccc2C(C)C)cc(OC)c1OC [Melasolv, (5-methyl-2-propan-2-ylphenyl) (E)-3-(3,4,5-trimethoxyphenyl) prop-2-enoate]",expression of the XPA gene,"UVB-photoaged melanocytes, 5 ppm of Melasolv, compared with control group, FIG. 4",increased even higher than that of the control group
same,"expression of aging genes (p16, p21)","melanocytes irradiated with UVB (312 nm, 20 mJ, once a day for two days), cultured one month, Melasolv at 1 and 5 ppm, real-time PCR corrected by GAPDH, FIGS. 1 and 2",inhibited in a concentration-dependent manner
same,"expression of DNA repair genes (APEX1, XPA, RPA1) that had decreased due to photoaging","melanocytes irradiated with UVB (312 nm, 20 mJ, once a day for two days), cultured one month, Melasolv at 1 and 5 ppm, real-time PCR corrected by GAPDH, FIGS. 3 to 5",increased
